# Legend:
# [1] = biological target: T1, human STAT6 (truncated, aa122-658, with N-terminal His-tag) (Homo sapiens, UniProt P42226); experiment: Surface Plasmon Resonance (SPR) assay: binding of compounds to immobilized human STAT6; details: immobilized human STAT6 (aa122-658), 25° C.; geometric mean
# T1 construct: Human STAT6 (truncated, aa122-658, with N-terminal His-tag, expressed in insect cells); His-tag (N); made in house; host or cells: insect cells
# T1 sequence (P42226 122-658): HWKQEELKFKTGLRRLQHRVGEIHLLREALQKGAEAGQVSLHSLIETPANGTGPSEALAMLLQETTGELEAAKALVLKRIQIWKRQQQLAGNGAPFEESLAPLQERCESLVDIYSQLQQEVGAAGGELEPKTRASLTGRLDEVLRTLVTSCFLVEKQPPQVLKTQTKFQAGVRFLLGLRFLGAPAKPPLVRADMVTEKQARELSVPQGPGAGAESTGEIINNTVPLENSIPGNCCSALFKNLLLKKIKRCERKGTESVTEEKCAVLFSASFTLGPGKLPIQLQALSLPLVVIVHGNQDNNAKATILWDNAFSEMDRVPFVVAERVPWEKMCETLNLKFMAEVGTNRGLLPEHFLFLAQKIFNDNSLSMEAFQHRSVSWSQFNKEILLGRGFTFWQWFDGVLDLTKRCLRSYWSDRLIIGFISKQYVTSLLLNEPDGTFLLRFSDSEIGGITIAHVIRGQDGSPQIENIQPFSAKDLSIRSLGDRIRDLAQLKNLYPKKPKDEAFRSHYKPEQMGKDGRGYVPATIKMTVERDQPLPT
# Description: SPR was used to confirm and quantify binding of compounds to human STAT6. Biacore instruments from the 8K-series (Cytiva) were used, and measurements were performed at 25° C. Human STAT6 (truncated, aa122-658, with N-terminal His-tag, expressed in insect cells) was immobilized in the active flow cells on a CM5 chip using amine-coupling (default settings) at 10 μg/ml in 10 mM acetate buffer pH 5.5, at a contact time of 120-420 sec. and a flow rate of […]. Reference flow cells were deactivated using blank immobilization. PBS-P+ (Cytiva) supplemented with 2% DMSO was used as running buffer, and solvent correction was applied. Compounds were tested by multi-cycle kinetics injections using a contact time of 60 sec., dissociation time of up to 300 sec., and a flow rate of […].
# Solvent-corrected, reference-subtracted and blank-corrected data was processed and binding isotherms were fitted according to a single report point from each sensorgram (Standard: Late binding (5 sec. before injection end); alternative: Earlier report point according to binding profile). Data fitting was done both with unfixed Rmax and with Rmax fixed to the theoretical value* assuming 1:1 binding to allow processing of data from both weak and strong binders as well as to evaluate binding stoichiometry.
# Positive controls were run at the beginning, during, and at the end of the screen to evaluate surface activity. Generally surface activity was only affected to a minor degree, and no corrections were applied.
# *Equation for calculation of the theoretical Rmax (Theoretical Rmax=(MW Analyte/MW Ligand) x immobilization level).
# The sensorgrams for Examples 2a1, 2t1, 2m1, and 2a2 are shown below (where RU is plotted vs. time in seconds; dotted lines/points were excluded from the analysis due to effects from non-specific binding).
# [2] = biological target: T2, STAT6 (endogenous, HiBiT-tagged) in HeLa LgBiT clone 4.14 cells (Homo sapiens, UniProt P42226); experiment: STAT6 Degrader Assay (HiBiT based, HeLa LgBiT clone 4.14 cells, luminescence, DC50); type: cell-based; details: geometric mean; for DC50: DC50 provided for test compounds with >80% Emax, read-out: STAT6 degradation DC50; for Emax: Emax provided for test compounds with <80% Emax (and 2c15), read-out: STAT6 degradation Emax
# T2 construct: These cells express endogenous STAT6; host or cells: HeLa LgBiT clone 4.14
# T2 sequence (P42226 1-847): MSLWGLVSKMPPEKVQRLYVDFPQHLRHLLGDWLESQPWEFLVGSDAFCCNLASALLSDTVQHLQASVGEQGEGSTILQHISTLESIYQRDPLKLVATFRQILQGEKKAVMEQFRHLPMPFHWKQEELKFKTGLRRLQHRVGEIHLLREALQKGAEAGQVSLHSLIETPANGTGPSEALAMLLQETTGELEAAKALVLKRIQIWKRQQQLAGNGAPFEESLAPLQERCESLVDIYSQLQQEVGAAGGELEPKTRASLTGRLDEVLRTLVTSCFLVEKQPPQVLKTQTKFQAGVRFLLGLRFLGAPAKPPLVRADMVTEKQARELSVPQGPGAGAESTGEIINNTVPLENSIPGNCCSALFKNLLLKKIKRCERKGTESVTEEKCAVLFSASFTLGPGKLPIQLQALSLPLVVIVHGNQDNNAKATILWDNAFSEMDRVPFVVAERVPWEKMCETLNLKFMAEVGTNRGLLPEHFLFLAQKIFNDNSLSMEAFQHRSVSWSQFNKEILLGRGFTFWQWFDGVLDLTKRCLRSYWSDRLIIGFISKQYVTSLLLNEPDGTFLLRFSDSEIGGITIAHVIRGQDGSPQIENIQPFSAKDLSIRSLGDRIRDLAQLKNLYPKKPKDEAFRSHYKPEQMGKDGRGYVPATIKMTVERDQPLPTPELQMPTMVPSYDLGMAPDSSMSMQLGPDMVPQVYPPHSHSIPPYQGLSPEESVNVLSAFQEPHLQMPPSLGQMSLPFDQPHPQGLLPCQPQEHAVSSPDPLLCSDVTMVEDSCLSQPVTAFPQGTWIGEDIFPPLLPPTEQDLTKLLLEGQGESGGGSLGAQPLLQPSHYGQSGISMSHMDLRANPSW
# Procedure, shortened: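 HeLa LgBiT clone 4.14 cells carry CRISPR-inserted HiBiT on endogenous STAT6; 5000 cells/well were exposed to compound for 4-24 h at 37 °C, 5% CO2. Nano-Glo substrate added for 0.5 h; luminescence reflects remaining STAT6, with terfenadine ([…]) wells defining 100% degradation.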
# [3] = system: Eotaxin-3 (CCL26) release in human whole blood stimulated with IL-4; experiment: Human Whole Blood Eotaxin-3 Assay (IL-4 stimulated, inhibition of eotaxin-3 release); type: cell-based; details: Homo sapiens, EC50 provided for test compounds with >80% Emax, geometric mean across assay runs and batches
# Procedure, shortened: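 Lithium-heparin human whole blood preincubated 2 h at 37 °C with compounds (4-fold serial dilution, triplicate, 0.5% DMSO final), then stimulated with 400 pM IL-4 for 48 h. Eotaxin-3 (CCL26) in supernatant quantified by MSD immunoassay.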
Kd [1] [nM],DC50 [2] [nM],Emax [2] [%],EC50 [3] [nM],SMILES
224,4.9,,,"Cn1c(CN2CCC(c3ccc(C(=O)N4CCN(C(=O)CN5CCC(c6ccc(NC7CCC(=O)NC7=O)cc6F)CC5)CC4)cc3)CC2)cc2c(-c3ccc4[nH]ncc4c3)ccnc21 (stereo not shown) [Example 2a1, 3-((4-(1-(2-(4-(4-(1-((4-(1H-indazol-5-yl)-1-methyl-1H-pyrrolo[2,3-b]pyridin-2-yl)methyl)-piperidin-4-yl)benzoyl)piperazin-1-yl)-2-oxoethyl)piperidin-4-yl)-3-fluorophenyl)amino)piperidine-2,6-dione]"
,2.6,,2.4,"COCc1nc2cc(-c3ccnc4c3cc(CN3CCC(c5ccc(C(=O)N6CCn7nc(CN8CCC(c9ccc(NC%10CCC(=O)NC%10=O)cc9F)CC8)cc7C6)cc5)CC3)n4C)ccc2[nH]1 (stereo not shown) [Example 2q7, 3-((3-fluoro-4-(1-((5-(4-(1-((4-(2-(methoxymethyl)-1H-benzo[d]imidazol-5-yl)-1-methyl-1H-pyrrolo[2,3-b]pyridin-2-yl)methyl)piperidin-4-yl)benzoyl)-4,5,6,7-tetrahydropyrazolo[1,5-a]pyrazin-2-yl)-methyl)piperidin-4-yl)phenyl)amino)piperidine-2,6-dione]"
,2.9,,26.7,"C[C@@H](c1cc2c(-c3ccc(N)nc3)ccnc2n1C)N1CCC(c2ccc(C(=O)N3CCn4nc(CN5CCC(c6ccc(NC7CCC(=O)NC7=O)cc6F)C(F)(F)C5)cc4C3)cc2)CC1 (stereo partly drawn) [Example 2q9, 3-((4-(1-((5-(4-(1-((S)-1-(4-(6-aminopyridin-3-yl)-1-methyl-1H-pyrrolo[2,3-b]pyridin-2-yl)-ethyl)piperidin-4-yl)benzoyl)-4,5,6,7-tetrahydropyrazolo[1,5-a]pyrazin-2-yl)methyl)-3,3-difluoro-piperidin-4-yl)-3-fluorophenyl)amino)piperidine-2,6-dione]"
,24.7,,86.7,"C[C@@H](c1cc2c(-c3ccc(N)nc3)ccnc2n1C)N1CCC(c2ccc(C(=O)N3CCn4nc(CN5CCN(c6ncc(NC7CCC(=O)NC7=O)cc6F)CC5)cc4C3)cc2)CC1 (stereo partly drawn) [Example 2q14, 3-((6-(4-((5-(4-(1-((S)-1-(4-(6-aminopyridin-3-yl)-1-methyl-1H-pyrrolo[2,3-b]pyridin-2-yl)ethyl)-piperidin-4-yl)benzoyl)-4,5,6,7-tetrahydropyrazolo[1,5-a]pyrazin-2-yl)methyl)piperazin-1-yl)-5-fluoropyridin-3-yl)amino)piperidine-2,6-dione]"
,6,,59.5,COCc1nc2cc(-c3ccnc4c3cc([C@H](C)N3CCC(c5ccc(C(=O)N6CCC(CN7CCN(c8ncc(NC9CCC(=O)NC9=O)cc8F)C[C@H]7C)CC6)cc5)CC3)n4C)ccc2[nH]1 (stereo partly shown) [Example 3t5]

# The next lines start with the compound.
SMILES,Kd [1] [nM],DC50 [2] [nM],Emax [2] [%],EC50 [3] [nM]
"Cn1c(CN2CCC(c3ccc(C(=O)N4CCN(C(=O)CN5CCN(c6ccc(NC7CCC(=O)NC7=O)cc6F)CC5)CC4)cc3)CC2)cc2c(-c3ccc4[nH]ncc4c3)ccnc21 (stereo not shown) [Example 2a2, 3-((4-(4-(2-(4-(4-(1-((4-(1H-indazol-5-yl)-1-methyl-1H-pyrrolo[2,3-b]pyridin-2-yl)methyl)-piperidin-4-yl)benzoyl)piperazin-1-yl)-2-oxoethyl)piperazin-1-yl)-3-fluorophenyl)amino)piperidine-2,6-dione]",61.2,,60 to 70,
"Cn1c(CN2CCC(c3ccc(C(=O)N4CCC(CN5CCN(c6ccc(NC7CCC(=O)NC7=O)cc6F)CC5)CC4)cc3)CC2)cc2c(-c3cnc(N)c(F)c3)ccnc21 (stereo not shown) [Example 2c3, 3-((4-(4-((1-(4-(1-((4-(6-amino-5-fluoropyridin-3-yl)-1-methyl-1H-pyrrolo[2,3-b]pyridin-2-yl)-methyl)piperidin-4-yl)benzoyl)piperidin-4-yl)methyl)piperazin-1-yl)-3-fluorophenyl)amino)piperidine-2,6-dione]",< 20,,< 20,
"Cn1c(CN2CCC(c3ccc(C(=O)N4CCC(CN5CCN(c6ccc(NC7CCC(=O)NC7=O)cc6F)CC5)CC4)cc3)CC2)cc2c(-c3ccc(N)nc3C#N)ccnc21 (stereo not shown) [Example 2c8, 6-amino-3-(2-((4-(4-(4-((4-(4-((2,6-dioxopiperidin-3-yl)amino)-2-fluorophenyl)piperazin-1-yl)-methyl)piperidine-1-carbonyl)phenyl)piperidin-1-yl)methyl)-1-methyl-1H-pyrrolo[2,3-b]pyridin-4-yl)-picolinonitrile]",40 to 50,,< 20,
"Cn1c(CN2CCC(c3ccc(C(=O)N4CCC(CN5CCN(C(=O)c6ccc(NC7CCC(=O)NC7=O)cc6F)CC5)CC4)cc3)CC2)cc2c(-c3ccc4[nH]ncc4c3)ccnc21 (stereo not shown) [Example 2e1, 3-((4-(4-((1-(4-(1-((4-(1H-indazol-5-yl)-1-methyl-1H-pyrrolo[2,3-b]pyridin-2-yl)methyl)-piperidin-4-yl)benzoyl)piperidin-4-yl)methyl)piperazine-1-carbonyl)-3-fluorophenyl)amino)piperidine-2,6-dione]",< 20,,< 20,
"Cn1c(CN2CCC(c3ccc(C(=O)N4CCC(CN5CCC(c6ccc(NC7CCC(=O)NC7=O)cc6F)CC5)CC4)cc3)CC2)cc2c(-c3ccc4[nH]ncc4c3)ccnc21 (stereo not shown) [Example 2m1, 3-((4-(1-((1-(4-(1-((4-(1H-indazol-5-yl)-1-methyl-1H-pyrrolo[2,3-b]pyridin-2-yl)methyl)-piperidin-4-yl)benzoyl)piperidin-4-yl)methyl)piperidin-4-yl)-3-fluorophenyl)amino)piperidine-2,6-dione]",466,,60 to 70,
"Cn1c(CN2CCC(c3ccc(C(=O)N4CCN(C(=O)CN5CCC(c6ccc(OC7CCC(=O)NC7=O)cc6F)CC5)CC4)cc3)CC2)cc2c(-c3ccc4[nH]ncc4c3)ccnc21 (stereo not shown) [Example 2t1, 3-(4-(1-(2-(4-(4-(1-((4-(1H-indazol-5-yl)-1-methyl-1H-pyrrolo[2,3-b]pyridin-2-yl)methyl)-piperidin-4-yl)benzoyl)piperazin-1-yl)-2-oxoethyl)piperidin-4-yl)-3-fluorophenoxy) piperidine-2,6-dione]",105,8.1,,
